Assay results from the SangsterLogP compilation.

Assay: not given

logP	Structure (SMILES)
3.11	BrC12CC3CC1C2C3
3.54	BrC1CC2CCC1C2 (stereo unspecified)

Assay: method code SF-AS, from DOI: 10.1021/je9900629

logP	Structure (SMILES)
2.67	C1=CC2C=CC1C2
1.24	OC1CC2C=CC1C2 (stereo unspecified)
3.24	C1=CC2CCC1C2

Assay: method code SF-HPLC, from DOI: 10.1021/je9900629

logP	Structure (SMILES)
3.35	ClC1CC2CCC1C2 (stereo unspecified)
1.58	C1CC2CC1C1OC21 (stereo unspecified)
2.9	C1C2C3C2C2C1C32 (stereo unspecified)
1.07	OC(C1CC1)C1CC1
1.45	OC1CC2CCC1C2 (stereo unspecified)
0.81	O=C1C2CC3C(C2)C13
0.4	OC1CC2CCC1C2O (stereo unspecified)
-0.42	OC1C2CC3C1C3C2O (stereo unspecified)
3.78	C1CC2CCC1C2
1.99	OCC1CC2CCC1C2 (stereo unspecified)
0.4	OC1C2CCC(C2)C1O (stereo unspecified)
